Laboratory results published in PubChem BioAssay AID330 (DTP/NCI, 2004).
Values joined by “and” are separate entries in the source; they are usually repeats but may differ in a detail not shown here. Identical values can stand only once. Inconclusive results and toxic doses are left out. Rule for the calls: active = survival T/C of 150% or more; inactive = T/C below 125% in these data.

Test system: P388 leukemia ip, CD2F1 mice, survival T/C
Experiment: NCI In Vivo Anticancer Drug Screen. Data for tumor model P388 Leukemia (intraperitoneal) in CD2F1 (CDF1) mice
Settings: endpoint: median survival time, higher = longer survival
Method in brief: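 Mice carrying the transplanted tumor received test compound or vehicle. Survival was recorded in each group, and the value is the treated-group measurement divided by that of the vehicle-treated control group.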

[1] = dose: 7.5 mg/kg/injection, schedule: Q01DX005 (ip), vehicle: saline with Tween-80
[2] = dose: 15.0 mg/kg/injection, schedule: Q01DX005 (ip), vehicle: saline with Tween-80
[3] = dose: 50.0 mg/kg/injection, schedule: Q01DX001 (ip), vehicle: saline with Tween-80
[4] = dose: 100.0 mg/kg/injection, schedule: Q01DX001 (ip), vehicle: saline with Tween-80
[5] = dose: 50.0 mg/kg/injection, schedule: Q01DX005 (ip), vehicle: Klucel (hydroxypropylcellulose) (HPC)
[6] = dose: 100.0 mg/kg/injection, schedule: Q01DX005 (ip), vehicle: Klucel (hydroxypropylcellulose) (HPC)
[7] = dose: 12.5 mg/kg/injection, schedule: Q01DX005 (ip), vehicle: saline
[8] = dose: 25.0 mg/kg/injection, schedule: Q01DX005 (ip), vehicle: saline
[9] = dose: 50.0 mg/kg/injection, schedule: Q01DX005 (ip), vehicle: saline
[10] = dose: 3.13 mg/kg/injection, schedule: Q01DX009 (ip), vehicle: saline with Tween-80
[11] = dose: 6.25 mg/kg/injection, schedule: Q01DX009 (ip), vehicle: saline with Tween-80
[12] = dose: 12.5 mg/kg/injection, schedule: Q01DX009 (ip), vehicle: saline with Tween-80
[13] = dose: 25.0 mg/kg/injection, schedule: Q01DX009 (ip), vehicle: saline
[14] = dose: 50.0 mg/kg/injection, schedule: Q01DX009 (ip), vehicle: saline
[15] = dose: 60.0 mg/kg/injection, schedule: Q01DX005 (ip), vehicle: saline with Tween-80
[16] = dose: 120.0 mg/kg/injection, schedule: Q01DX005 (ip), vehicle: saline with Tween-80
[17] = dose: 240.0 mg/kg/injection, schedule: Q01DX005 (ip), vehicle: saline with Tween-80
[18] = dose: 50.0 mg/kg/injection, schedule: Q01DX009 (ip), vehicle: Klucel (hydroxypropylcellulose) (HPC)
[19] = dose: 100.0 mg/kg/injection, schedule: Q01DX009 (ip), vehicle: Klucel (hydroxypropylcellulose) (HPC)
[20] = dose: 200.0 mg/kg/injection, schedule: Q01DX009 (ip), vehicle: Klucel (hydroxypropylcellulose) (HPC)
[21] = dose: 12.5 mg/kg/injection, schedule: Q01DX009 (ip), vehicle: saline
[22] = dose: 25.0 mg/kg/injection, schedule: Q01DX009 (ip), vehicle: saline with Tween-80
[23] = dose: 50.0 mg/kg/injection, schedule: Q01DX009 (ip), vehicle: saline with Tween-80

Measured: T/C

Cc1ccc(N2C(c3ccccc3)=CC(=C3C=CC(=O)C=C3)C=C2c2ccccc2)cc1
inactive: dose: 3.75 mg/kg/injection, schedule: Q01DX005 (ip), vehicle: saline with Tween-80 110 % of control | [1] 112 % of control | [2] 103 % of control

Cc1cnc(=O)[nH]c1NOCc1ccccc1
inactive: dose: 15.0 mg/kg/injection, schedule: Q01DX001 (ip), vehicle: saline 98 % of control | dose: 30.0 mg/kg/injection, schedule: Q01DX001 (ip), vehicle: saline 105 % of control | dose: 60.0 mg/kg/injection, schedule: Q01DX001 (ip), vehicle: saline 100 % of control

CCOC(=O)/C=C(\C(=O)OCC)N(O)C(=O)CN1C(=O)c2ccccc2C1=O
inactive: [3] 106 % of control | [4] 105 % of control | dose: 200.0 mg/kg/injection, schedule: Q01DX001 (ip), vehicle: saline with Tween-80 98 % of control | dose: 400.0 mg/kg/injection, schedule: Q01DX001 (ip), vehicle: saline with Tween-80 93 % of control

CC(=O)n1c(Cl)c(/C=N/NS(=O)(=O)c2ccc(C)cc2)c2ccccc21
inactive: dose: 25.0 mg/kg/injection, schedule: Q01DX001 (ip), vehicle: saline with Tween-80 100 % of control | [3] 86 % of control and 88 % of control | [4] 91 % of control

Cc1cccc(Nc2nc(C)nc3[nH]cc(C)c23)c1
inactive: [5] 92 % of control | [6] 90 % of control

Cc1cccc(/C=N/Nc2nc3ccccc3s2)n1
inactive: dose: 6.25 mg/kg/injection, schedule: Q01DX005 (ip), vehicle: saline with Tween-80 90 % of control | dose: 12.5 mg/kg/injection, schedule: Q01DX005 (ip), vehicle: saline with Tween-80 89 % of control | dose: 200.0 mg/kg/injection, schedule: Q01DX005 (ip), vehicle: saline with Tween-80 99 % of control

CN=c1ccc2nc3ccc(N)cc3sc-2c1
inactive: [7] 105 % of control | [8] 107 % of control | [9] 103 % of control

ONc1ncnc2nc[nH]c12
inactive: dose: 50.0 mg/kg/injection, schedule: Q04DX003 (ip), vehicle: saline with Tween-80 122 % of control | dose: 200.0 mg/kg/injection, schedule: Q04DX003 (ip), vehicle: saline sonified 120 % of control

CC(=O)N1CCC23c4ccccc4N(C)C2CC(=O)CC13 (configuration not stated)
inactive: dose: 8.75 mg/kg/injection, schedule: Q01DX005 (ip), vehicle: Klucel (hydroxypropylcellulose) (HPC) 97 % of control | dose: 17.5 mg/kg/injection, schedule: Q01DX005 (ip), vehicle: Klucel (hydroxypropylcellulose) (HPC) 98 % of control | dose: 35.0 mg/kg/injection, schedule: Q01DX005 (ip), vehicle: Klucel (hydroxypropylcellulose) (HPC) 103 % of control

O=C(CO)c1ccc([N+](=O)[O-])cc1
inactive: dose: 1.56 mg/kg/injection, schedule: Q01DX009 (ip), vehicle: saline with Tween-80 99 % of control | [10] 101 % of control | [11] 106 % of control | [12] 116 % of control

CCCCCCCCCCCC(=O)NC(=S)Nc1ccccc1C(=O)OC
inactive: [13] 105 % of control | [14] 99 % of control

Cc1onc(-c2c(Cl)cccc2Cl)c1C(=O)Oc1ccc(-c2ccc(OC(=O)c3c(-c4c(Cl)cccc4Cl)noc3C)cc2)cc1
inactive: [15] 108 % of control | [16] 102 % of control | [17] 89 % of control

[Cl][Pt+2][Cl].[NH-]c1nc2ccc(Br)cc2s1.[NH-]c1nc2ccc(Br)cc2s1
inactive: dose: 100.0 mg/kg/injection, schedule: Q04DX002 (ip), vehicle: saline with Tween-80 103 % of control | dose: 200.0 mg/kg/injection, schedule: Q04DX002 (ip), vehicle: saline with Tween-80 91 % of control

COc1ccc(C(=O)CC2(O)C(=O)Nc3ccccc32)cc1 (configuration not stated)
inactive: [18] 100 % of control | [19] 102 % of control | [20] 100 % of control

COc1ccc(/C=C2\SC(=S)NC2=O)cc1OC
inactive: [18] 94 % of control | [19] 92 % of control | [20] 94 % of control | dose: 400.0 mg/kg/injection, schedule: Q01DX009 (ip), vehicle: Klucel (hydroxypropylcellulose) (HPC) 91 % of control

Cc1ccc(S(=O)(=O)N(CCc2ccc(Cl)cc2)S(=O)(=O)c2ccc(C)cc2)cc1
inactive: [18] 109 % of control | [19] 94 % of control | [20] 93 % of control

Clc1ccc(C(Nc2nncs2)Nc2nncs2)cc1
inactive: [15] 94 % of control | [16] 93 % of control | [17] 98 % of control

CC(C)N[C@@H]1CCC[C@@H]2c3ccccc3[C@@]21O
inactive: dose: 60.0 mg/kg/injection, schedule: Q01DX005 (ip), vehicle: saline 96 % of control | dose: 120.0 mg/kg/injection, schedule: Q01DX005 (ip), vehicle: saline 95 % of control

C=CCOc1cc2c(cc1OCC=C)C(=O)c1cc3c(cc1C2=O)OCO3
inactive: [1] 95 % of control | [2] 93 % of control

C=C(C)C(=O)Nc1ccc(NC(C)C)cc1
inactive: [12] 115 % of control | [21] 105 % of control | [22] 108 % of control | [13] 97 % of control | [23] 93 % of control and 96 % of control | [14] 90 % of control | dose: 100.0 mg/kg/injection, schedule: Q01DX009 (ip), vehicle: saline 102 % of control

CC(=N\N)/C(C)=N/N
inactive: [22] 100 % of control | [23] 121 % of control

Cn1c(=O)c2[nH]c(C3CCCC3)nc2n(C)c1=O
inactive: [10] 94 % of control | [11] 103 % of control | [12] 103 % of control | [22] 92 % of control

C[n+]1c(-c2cccc3ccccc23)c2cc(N)ccc2c2ccccc21
inactive: dose: 0.78 mg/kg/injection, schedule: Q01DX009 (ip), vehicle: water 110 % of control | dose: 1.56 mg/kg/injection, schedule: Q01DX009 (ip), vehicle: saline 103 % of control and 113 % of control | dose: 1.56 mg/kg/injection, schedule: Q01DX009 (ip), vehicle: water 119 % of control | dose: 3.12 mg/kg/injection, schedule: Q01DX009 (ip), vehicle: saline 105 % of control | dose: 6.25 mg/kg/injection, schedule: Q01DX009 (ip), vehicle: saline 112 % of control and 122 % of control | dose: 12.0 mg/kg/injection, schedule: Q01DX009 (ip), vehicle: water 110 % of control | [21] 117 % of control and 121 % of control

Cc1ccnc(NCc2ccccn2)c1
inactive: dose: 50.0 mg/kg/injection, schedule: Q01DX005 (ip), vehicle: saline with Tween-80 105 % of control | dose: 100.0 mg/kg/injection, schedule: Q01DX005 (ip), vehicle: saline with Tween-80 102 % of control

CCCCCCN(CCCCCC)C(=N)c1ccnc2ccccc12
inactive: [7] 92 % of control | [8] 100 % of control | [9] 87 % of control and 94 % of control

Cc1ccc2c(=O)c3ccccc3c3c2c1c1c(C)ccc2c(=O)c4ccccc4c3c21
inactive: [5] 108 % of control | [6] 102 % of control | dose: 200.0 mg/kg/injection, schedule: Q01DX005 (ip), vehicle: Klucel (hydroxypropylcellulose) (HPC) 107 % of control
